Literature values in US20230390267A1, “TREATMENT REGIMENS FOR EARLY IDIOPATHIC PARKINSON'S DISEASE” (BIAL - PORTELA & CA., S.A., priority 2020, published 2023).
Read-outs that look alike come from different tables or passages of the source.

Key:
[1] = tested on: 'stable' PD patients; conditions: 6 months, cited from earlier work
[2] = tested on: patients suffering from early idiopathic Parkinson's disease; conditions: addition of entacapone to levodopa/DDCI in early PD; cited from earlier work
[3] = cited from earlier work
[4] = tolcapone 100 mg three times daily
[5] = tolcapone 200 mg three times daily

In the case of `Cc1ccc(C(=O)c2cc(O)c(O)c([N+](=O)[O-])c2)cc1` [tolcapone], the “reduction in UPDRS Part II activities of daily living (ADL) score” value [1, 4] is given as −1.4 points, the “reduction in UPDRS motor score” value [1, 4] is given as −2.0 points and the “reduction in UPDRS Part II activities of daily living (ADL) score” value [1, 5] is given as −1.6 points. For the same molecule, the “reduction in UPDRS motor score” value [1, 5] was −2.3 points.
In the case of `CCN(CC)C(=O)/C(C#N)=C/c1cc(O)c(O)c([N+](=O)[O-])c1` [entacapone], the “onset of motor complications and frequency of dyskinesia” value [2] is listed as “shorter time to onset of motor complications and increased frequency of dyskinesia”.
In the case of `N[C@@H](Cc1ccc(O)c(O)c1)C(=O)O` [levodopa], the “plasma half-life of levodopa” value ([3]; oral levodopa combined with carbidopa) is given as 1.5 h, the “half-life of oral levodopa” value ([3]; when administered with DDCIs) is given as 1 to 1.5 h and the “extent of brain penetration of levodopa” value ([3]; when combined with a DDCI) is given as 10%.
